This passage reports IC50 results from ChEMBL document CHEMBL4619804, “Target-Based Identification and Optimization of 5-Indazol-5-yl Pyridones as Toll-like Receptor 7 and 8 Antagonists Using a Biochemical TLR8 Antagonist Competition Assay” (J Med Chem, 2020).

pIC50: −log10 of the molar value.

The target of one assay is Cytochrome P450 3A4 (Homo sapiens, UniProt P08684). Nature of the assay: Inhibition of CYP3A4 (unknown origin). It counts as ADME.
Assay [1] has as its target T1, Toll-like receptor 9 (Homo sapiens, UniProt Q9NR96).
T1 sequence (Q9NR96 whole entry): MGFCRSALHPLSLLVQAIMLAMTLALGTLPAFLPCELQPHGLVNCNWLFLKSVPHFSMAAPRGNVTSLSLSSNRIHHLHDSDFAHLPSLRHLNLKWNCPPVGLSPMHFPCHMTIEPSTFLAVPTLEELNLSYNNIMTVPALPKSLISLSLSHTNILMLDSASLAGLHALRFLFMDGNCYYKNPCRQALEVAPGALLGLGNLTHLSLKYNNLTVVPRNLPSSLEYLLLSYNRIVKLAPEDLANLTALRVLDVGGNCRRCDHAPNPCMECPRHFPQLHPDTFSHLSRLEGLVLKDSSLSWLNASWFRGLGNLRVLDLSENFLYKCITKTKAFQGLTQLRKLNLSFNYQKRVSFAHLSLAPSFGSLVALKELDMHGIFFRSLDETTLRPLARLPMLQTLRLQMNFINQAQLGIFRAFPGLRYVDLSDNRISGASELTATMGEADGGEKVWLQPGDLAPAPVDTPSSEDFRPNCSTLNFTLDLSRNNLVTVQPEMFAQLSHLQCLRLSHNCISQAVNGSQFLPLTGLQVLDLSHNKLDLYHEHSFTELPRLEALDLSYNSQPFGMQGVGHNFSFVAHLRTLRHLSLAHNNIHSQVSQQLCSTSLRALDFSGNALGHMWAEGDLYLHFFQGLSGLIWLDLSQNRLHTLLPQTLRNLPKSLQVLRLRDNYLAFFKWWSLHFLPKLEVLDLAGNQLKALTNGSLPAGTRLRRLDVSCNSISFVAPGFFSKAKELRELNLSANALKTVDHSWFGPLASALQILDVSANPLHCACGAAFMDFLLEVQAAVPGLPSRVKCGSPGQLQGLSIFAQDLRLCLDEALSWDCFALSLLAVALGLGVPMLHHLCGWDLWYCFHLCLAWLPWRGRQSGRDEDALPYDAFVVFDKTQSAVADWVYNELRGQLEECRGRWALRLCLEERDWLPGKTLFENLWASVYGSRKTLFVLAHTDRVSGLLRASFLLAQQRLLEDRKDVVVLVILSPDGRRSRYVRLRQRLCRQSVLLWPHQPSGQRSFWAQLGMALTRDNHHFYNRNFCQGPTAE
Kind of assay: Antagonist activity at TLR9 in human PBMC assessed as inhibition of ODN2216-induced IFNalpha production preincubated for 30 mins followed by ODN2216 addition and measured after 20 hrs by alphaLISA. The assay is classed as cell-based.

Assay [2] deals with T1, Toll-like receptor 9. Kind of assay: Antagonist activity at TLR9 in human whole blood inhibition of DOTAP-ODN2216-induced IFNalpha production preincubated for 30 mins followed by DOTAP-ODN2216 addition and measured after 20 hrs by ELISA. The assay is classed as tissue-based.
The target of the next assay is T2, Toll-like receptor 7 (Mus musculus, UniProt P58681).
T2 sequence (P58681 whole entry): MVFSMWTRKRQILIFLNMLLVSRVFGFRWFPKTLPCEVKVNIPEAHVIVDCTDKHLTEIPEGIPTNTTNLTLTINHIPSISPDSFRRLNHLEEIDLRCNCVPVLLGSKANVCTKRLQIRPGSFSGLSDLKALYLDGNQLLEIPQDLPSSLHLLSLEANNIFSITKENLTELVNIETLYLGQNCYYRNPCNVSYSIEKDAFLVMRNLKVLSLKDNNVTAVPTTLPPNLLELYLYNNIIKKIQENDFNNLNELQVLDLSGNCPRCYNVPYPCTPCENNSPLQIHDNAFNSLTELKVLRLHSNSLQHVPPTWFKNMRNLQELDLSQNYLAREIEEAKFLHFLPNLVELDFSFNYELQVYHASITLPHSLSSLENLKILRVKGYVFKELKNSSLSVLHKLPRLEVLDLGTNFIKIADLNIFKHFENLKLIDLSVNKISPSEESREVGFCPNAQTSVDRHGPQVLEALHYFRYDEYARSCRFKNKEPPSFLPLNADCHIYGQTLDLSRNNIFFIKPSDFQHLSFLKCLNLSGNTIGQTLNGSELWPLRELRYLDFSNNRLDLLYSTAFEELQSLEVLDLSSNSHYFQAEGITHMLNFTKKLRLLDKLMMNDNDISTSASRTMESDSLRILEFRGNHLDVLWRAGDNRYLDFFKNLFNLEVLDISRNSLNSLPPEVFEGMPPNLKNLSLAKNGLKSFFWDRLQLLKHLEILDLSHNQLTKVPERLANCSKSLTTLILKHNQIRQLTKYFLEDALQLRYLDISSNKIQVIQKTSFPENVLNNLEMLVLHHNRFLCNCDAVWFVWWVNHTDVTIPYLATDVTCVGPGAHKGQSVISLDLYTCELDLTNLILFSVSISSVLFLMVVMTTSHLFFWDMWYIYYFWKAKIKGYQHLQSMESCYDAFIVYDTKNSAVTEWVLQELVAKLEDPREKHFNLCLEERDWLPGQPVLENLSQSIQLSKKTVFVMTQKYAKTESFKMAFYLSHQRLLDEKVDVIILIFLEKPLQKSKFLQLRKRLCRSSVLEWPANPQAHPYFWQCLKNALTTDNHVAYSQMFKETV
Nature of the assay: Antagonist activity at TLR7 in mouse whole blood assessed as inhibition of DOTAP-ssRNA40 induced IFNalpha production preincubated for 30 mins followed by ssRNA40 addition measured after 20 hrs by ELISA. The assay is classed as tissue-based.

Cytochrome P450 3A4, sequence (P08684 whole entry): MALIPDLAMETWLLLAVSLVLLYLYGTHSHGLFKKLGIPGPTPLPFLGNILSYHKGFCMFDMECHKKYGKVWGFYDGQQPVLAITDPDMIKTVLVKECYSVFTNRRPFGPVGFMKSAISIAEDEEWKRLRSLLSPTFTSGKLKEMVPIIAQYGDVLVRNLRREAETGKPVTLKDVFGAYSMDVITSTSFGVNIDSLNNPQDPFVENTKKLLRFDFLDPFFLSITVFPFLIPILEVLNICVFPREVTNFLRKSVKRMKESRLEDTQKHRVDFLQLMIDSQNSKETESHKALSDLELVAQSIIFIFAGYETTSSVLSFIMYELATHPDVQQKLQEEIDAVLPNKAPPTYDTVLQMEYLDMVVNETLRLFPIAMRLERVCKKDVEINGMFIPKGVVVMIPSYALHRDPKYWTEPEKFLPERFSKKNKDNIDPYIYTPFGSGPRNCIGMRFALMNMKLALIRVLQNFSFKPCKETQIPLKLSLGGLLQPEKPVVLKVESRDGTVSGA

`O=c1ccc(-c2cc(C(F)(F)F)c3nn([C@H]4CCNC[C@@H]4F)cc3c2)c2n1CCC2`: the pIC50 against Cytochrome P450 3A4 is < 4.60; at Toll-like receptor 9 [1] it was < 5.28; against Toll-like receptor 9 [2] it was < 5.00; on Toll-like receptor 7, 6.74.
